Experimental data published in patent US20210179680A1, “POLYPEPTIDE, DERIVATIVES THEREOF, AND APPLICATION THEREOF IN PREPARATION OF DRUGS HAVING RESISTANCE TO PULMONARY FIBROSIS” (priority 2016, published 2021).
Bridge positions count the residues as written; N and C are the ends. Square brackets hold non-standard residues; d marks the D form. Peptide text beside a SMILES is read from it. S5 = C=CCCC[C@](C)(N)C(=O)O

Columns and labels:
Type in all cases: in vivo, C57BL/6 mice
[1] = tested on: mice with bleomycin-induced pulmonary fibrosis; assay: HE staining pathomorphology and inflammatory score of bleomycin-induced pulmonary fibrosis; details: 2 mg/kg i.p., after 28 days, grade 0-5; for Inflammatory score: Table 3 groups
Procedure: (§1) Male C57BL/6 mice were fasted overnight, then anesthetized with 45 mg/kg sodium pentobarbital by injection intraperitoneally (i.p.), and intratracheally injected with bleomycin at a dose of 3 U/kg. The specific operation steps are as follows: cut the neck skin of the mouse with as little trauma as possible, expose the trachea with the assistance of elbow ophthalmic forceps, puncture the trachea and inject about 50 μL of bleomycin into the trachea with a microsyringe, rotate the mouse quickly and stand it upright for 5 minutes in order to make bleomycin evenly enter the left and right lobe, thereby constructing an animal model. The whole operation was performed at a surgical table at about […]. Mice in the sham operation group were intratracheally injected with an equal amount of physiological saline for injection.
General tissue changes and tissue products can be visualized by HE staining method, namely Hematoxylin and Eosin staining method, which is the most commonly used staining method for morphology. Among them, hematoxylin dyeing solution is an alkaline dyeing solution, which mainly makes the chromatin in the nucleus and the ribosome in the cytoplasm purple blue; eosin is an acid dye, which mainly makes the components in the cytoplasm and extracellular matrix red. Pulmonary fibrosis models were made according to the method described in Example 2 and administered in groups according to Table 3. After 28 days, the right lower lobe of lung tissue of the experimental animals was taken, and fixed with 4% (v/v) paraformaldehyde and embedded in paraffin. Section was performed on the largest cross-section of the paraffin block in which the lung tissue embedded, and basic pathological changes was observed through HE staining. […] The administration of polypeptides S1-S11 can reduce lung inflammation caused by bleomycin, and effectively ameliorate lung injury and restore normal lung structure.
The inflammatory grading was observed according to the results of HE staining, and the criteria were as follows (grade 0-5): grade “0”: normal tissue; grade “1”: extremely small inflammatory changes; grade “2”: mild to moderate inflammatory changes without apparent destruction of lung tissue structure; grade “3”: moderate inflammatory injury (thickening of alveolar diaphragm); grade “4”: moderate to severe inflammatory injury with formation of tissue mass, or the normal structure of lung tissue was destroyed by localized pneumonia area; grade “5”: severe inflammatory injury, severe destruction of the localized lung tissue structure, resulting in closure of lumen.
Pulmonary fibrosis models were made according to the method described in Example 2 and administered in groups according to Table 9. After 28 days, the right lower lobe of lung tissue of the experimental animals was taken, and fixed by 4% (v/v) paraformaldehyde and embedded in paraffin. Section was performed on the largest cross-section of the paraffin block in which the lung tissue embedded, and basic pathological changes was observed through HE staining.

[2] = tested on: mice with bleomycin-induced pulmonary fibrosis; assay: Pulmonary function (Flexivent) in mice with pulmonary fibrosis; details: 2 mg/kg i.p.
Procedure: as §1
(§2) Pulmonary function is a gold indicator for clinical detection of pulmonary fibrosis in patients. The decline of lung function is generally accompanied by an aggravation of fibrosis, while the improvement of lung function generally represents the recovery of lung tissue structure. Pulmonary fibrosis models were prepared according to the method described in Example 2 and administered in groups according to Table 3. On the 28th day after the construction of the animal model, the mice were anesthetized with sodium pentobarbital (45 mg/kg, i.p.). Lung function was tested by the Flexivent Small-animal respiratory mechanics and the testing methods were TLC and SnapShots (Testing method refers to Lv X, Wang X, Li K, et al. Rupatadine Protects against Pulmonary Fibrosis by Attenuating PAF-Mediated Senescence in Rodents [J]. PloS one, 2013, 8(7): e68631).
as §2, with “lung function also generally represents” for “lung function generally represents”, “to Table 9. 28 days later, the mice” for “to Table 3. On the 28th day after the construction of the animal model, the mice”, “Senescence in Rodents[J]. PloS one,” for “Senescence in Rodents [J]. PloS one,”

[3] = tested on: mice with bleomycin-induced pulmonary fibrosis; assay: Lung weight index in mice with pulmonary fibrosis; details: 2 mg/kg i.p., after 28 days, lung weight (mg) divided by body weight (g)
Procedure: as §1
Pulmonary fibrosis model was prepared according to the method described in Example 2, and administered in groups according to Table 3. After 28 days, the lungs of the mice were finely stripped and weighed, and a lung weight index was obtained from dividing the lung weight (mg) by the body weight (g) of the mice. […] In FIG. 7, “##” represents that P value is less than 0.01 when the lung weight index of administration group was compared with that of the sham operation group; “*” represents that P value is less than 0.05 when the lung weight index of administration group was compared with that of the bleomycin group; “**” represents that P value is less than 0.01 when the lung weight index of administration group was compared with that of bleomycin group.
Pulmonary fibrosis models were made according to the method described in Example 2 and administered in groups according to Table 9. After 28 days, the lungs of the mice were finely stripped and weighed, and the lung weight (mg) was divided by the body weight (g) of the mice to obtain a lung weight index. […] In FIG. 13, “##” represents that P value is less than 0.01 when the lung weight index of the administration groups were compared with that of the sham operation group; “*” represents that P value is less than 0.05 and “**” represents that P value is less than 0.01 when the lung weight index of the administration groups were compared with bleomycin group.

[4] = Table 3 groups, 28th day after model construction

CSCC[C@H](NC(=O)[C@H](CC(C)C)NC(=O)[C@@H](N)Cc1c[nH]cn1)C(=O)N[C@@H](C)C(=O)N[C@@H](CS)C(=O)N[C@@]1(C)CCCC=CCCC[C@@](C)(C(=O)N[C@@H](CCCCN)C(=O)N[C@@H](CC(C)C)C(=O)N[C@@H](CCCCN)C(=O)N[C@@H](CCCCN)C(=O)N[C@@H](CCCNC(=N)N)C(=O)O)NC(=O)[C@H](C)NC(=O)[C@H](CS)NC(=O)[C@H]([C@@H](C)O)NC1=O [S6, His-Leu-Met-Ala-Cys-S5-Thr-Cys-Ala-S5-Lys-Leu-Lys-Lys-Arg] (H-HLMAC[S5]TCA[S5]KLKKR-OH; staple 6-10; N-terminus and C-terminus assumed)
Inflammatory score [1]: 3
Dynamic compliance (mL/cmH2O) [2, 4]: 0.2683 mL/cmH2O
Dynamic elasticity (cmH2O./mL) [2, 4]: 52.17 cmH2O./mL
Dynamic resistance (cmH2O · s/Ml) [2, 4]: 1.067 cmH2O · s/Ml
Inspiratory capacity [2, 4]: 0.558 mL
pulmonary function of mice with pulmonary fibrosis (in words) ([2]; Table 3 groups, FIG. 11): improved
Lung weight index ([3]; Table 3 groups): 9.725

CSCC[C@H](NC(=O)[C@H](CC(C)C)NC(=O)[C@@H](N)Cc1c[nH]cn1)C(=O)N[C@@H](C)C(=O)N[C@@H](CS)C(=O)N[C@@H](Cc1ccccc1)C(=O)N[C@@]1(C)CCCC=CCCC[C@@](C)(C(=O)N[C@@H](CC(C)C)C(=O)N[C@@H](CCCCN)C(=O)N[C@@H](CCCCN)C(=O)N[C@@H](CCCNC(=N)N)C(=O)O)NC(=O)[C@H](CCCCN)NC(=O)[C@H](C)NC(=O)[C@H](CS)NC1=O [S7, His-Leu-Met-Ala-Cys-Phe-S5-Cys-Ala-Lys-S5-Leu-Lys-Lys-Arg] (H-HLMACF[S5]CAK[S5]LKKR-OH; staple 7-11; N-terminus and C-terminus assumed)
Inflammatory score [1]: 2
Dynamic compliance (mL/cmH2O) [2, 4]: 0.29 mL/cmH2O
Dynamic elasticity (cmH2O./mL) [2, 4]: 51 cmH2O./mL
Dynamic resistance (cmH2O · s/Ml) [2, 4]: 0.8833 cmH2O · s/Ml
Inspiratory capacity [2, 4]: 0.684 mL
pulmonary function of mice with pulmonary fibrosis (in words) ([2]; Table 3 groups, FIG. 11): improved
Lung weight index ([3]; Table 3 groups): 7.675

CSCC[C@H](NC(=O)[C@H](CC(C)C)NC(=O)[C@@H](N)Cc1c[nH]cn1)C(=O)N[C@@H](C)C(=O)N[C@@H](CS)C(=O)N[C@@H](Cc1ccccc1)C(=O)N[C@H](C(=O)N[C@@]1(C)CCCC=CCCC[C@@](C)(C(=O)N[C@@H](CCCCN)C(=O)N[C@@H](CCCCN)C(=O)N[C@@H](CCCNC(=N)N)C(=O)O)NC(=O)[C@H](CCCCN)NC(=O)[C@H](CCCCN)NC(=O)[C@H](C)NC1=O)[C@@H](C)O [S8, His-Leu-Met-Ala-Cys-Phe-Thr-S5-Ala-Lys-Lys-S5-Lys-Lys-Arg] (H-HLMACFT[S5]AKK[S5]KKR-OH; staple 8-12; N-terminus and C-terminus assumed)
Inflammatory score [1]: 2.833
Dynamic compliance (mL/cmH2O) [2, 4]: 0.2583 mL/cmH2O
Dynamic elasticity (cmH2O./mL) [2, 4]: 66.5 cmH2O./mL
Dynamic resistance (cmH2O · s/Ml) [2, 4]: 1.35 cmH2O · s/Ml
Inspiratory capacity [2, 4]: 0.626 mL
pulmonary function of mice with pulmonary fibrosis (in words) ([2]; Table 3 groups, FIG. 11): improved
Lung weight index ([3]; Table 3 groups): 8.775

CSCC[C@H](NC(=O)[C@H](CC(C)C)NC(=O)[C@@H](N)Cc1c[nH]cn1)C(=O)N[C@@H](C)C(=O)N[C@@H](CS)C(=O)N[C@@H](Cc1ccccc1)C(=O)N[C@H](C(=O)N[C@@H](CS)C(=O)N[C@@]1(C)CCCC=CCCC[C@@](C)(C(=O)N[C@@H](CCCCN)C(=O)N[C@@H](CCCNC(=N)N)C(=O)O)NC(=O)[C@H](CC(C)C)NC(=O)[C@H](CCCCN)NC(=O)[C@H](CCCCN)NC1=O)[C@@H](C)O [S9, His-Leu-Met-Ala-Cys-Phe-Thr-Cys-S5-Lys-Lys-Leu-S5-Lys-Arg] (H-HLMACFTC[S5]KKL[S5]KR-OH; staple 9-13; N-terminus and C-terminus assumed)
Inflammatory score [1]: 2.167
Dynamic compliance (mL/cmH2O) [2, 4]: 0.27 mL/cmH2O
Dynamic elasticity (cmH2O./mL) [2, 4]: 44.5 cmH2O./mL
Dynamic resistance (cmH2O · s/Ml) [2, 4]: 1.033 cmH2O · s/Ml
Inspiratory capacity [2, 4]: 0.686 mL
pulmonary function of mice with pulmonary fibrosis (in words) ([2]; Table 3 groups, FIG. 11): improved
Lung weight index ([3]; Table 3 groups): 7.4125

CSCC[C@H](NC(=O)[C@H](CC(C)C)NC(=O)[C@@H](N)Cc1c[nH]cn1)C(=O)N[C@@H](C)C(=O)N[C@@H](CS)C(=O)N[C@@H](Cc1ccccc1)C(=O)N[C@H](C(=O)N[C@@H](CS)C(=O)N[C@@H](C)C(=O)N[C@@]1(C)CCCC=CCCC[C@@](C)(C(=O)N[C@@H](CCCNC(=N)N)C(=O)O)NC(=O)[C@H](CCCCN)NC(=O)[C@H](CC(C)C)NC(=O)[C@H](CCCCN)NC1=O)[C@@H](C)O [S10, His-Leu-Met-Ala-Cys-Phe-Thr-Cys-Ala-S5-Lys-Leu-Lys-S5-Arg] (H-HLMACFTCA[S5]KLK[S5]R-OH; staple 10-14; N-terminus and C-terminus assumed)
Inflammatory score [1]: 3
Dynamic compliance (mL/cmH2O) [2, 4]: 0.2333 mL/cmH2O
Dynamic elasticity (cmH2O./mL) [2, 4]: 49.5 cmH2O./mL
Dynamic resistance (cmH2O · s/Ml) [2, 4]: 1.367 cmH2O · s/Ml
Inspiratory capacity [2, 4]: 0.562 mL
pulmonary function of mice with pulmonary fibrosis (in words) ([2]; Table 3 groups, FIG. 11): improved
Lung weight index ([3]; Table 3 groups): 8.8875

CSCC[C@H](NC(=O)[C@H](CC(C)C)NC(=O)[C@@H](N)Cc1c[nH]cn1)C(=O)N[C@@H](C)C(=O)N[C@@H](CS)C(=O)N[C@@H](Cc1ccccc1)C(=O)N[C@H](C(=O)N[C@@H](CS)C(=O)N[C@@H](C)C(=O)N[C@@H](CCCCN)C(=O)N[C@@]1(C)CCCC=CCCC[C@@](C)(C(=O)O)NC(=O)[C@H](CCCCN)NC(=O)[C@H](CCCCN)NC(=O)[C@H](CC(C)C)NC1=O)[C@@H](C)O [S11, His-Leu-Met-Ala-Cys-Phe-Thr-Cys-Ala-Lys-S5-Leu-Lys-Lys-S5] (H-HLMACFTCAK[S5]LKK[S5]-OH; staple 11-15; N-terminus and C-terminus assumed)
Inflammatory score [1]: 3
Dynamic compliance (mL/cmH2O) [2, 4]: 0.235 mL/cmH2O
Dynamic elasticity (cmH2O./mL) [2, 4]: 53 cmH2O./mL
Dynamic resistance (cmH2O · s/Ml) [2, 4]: 1.267 cmH2O · s/Ml
Inspiratory capacity [2, 4]: 0.658 mL
pulmonary function of mice with pulmonary fibrosis (in words) ([2]; Table 3 groups, FIG. 11): improved
Lung weight index ([3]; Table 3 groups): 9.2875

S19: chimeric polypeptide Pep2-MR2, amino acid sequence SEQ ID NO: 19 (HLYVSPWGGHLMACFTCAKKLKKR; chimeric polypeptide Pep2-MR2 S19)
Inflammatory scoring ([1]; Table 9 groups): 1.833
Dynamic compliance (mL/cmH2O) ([2]; Table 9 groups, 28 days later): 0.33 mL/cmH2O
Dynamic elasticity (cmH2O./mL) ([2]; Table 9 groups, 28 days later): 38.67 cmH2O./mL
Dynamic resistance (cmH2O · s/Ml) ([2]; Table 9 groups, 28 days later): 1.143 cmH2O · s/Ml
Inspiratory capacity ([2]; Table 9 groups, 28 days later): 0.692 mL
pulmonary function of mice with pulmonary fibrosis (in words) ([2]; Table 9 groups, FIG. 17): improved
Lung weight index ([3]; Table 9 groups): 8.675
